# Measurements from article PMC5601738, “Facile total synthesis of lysicamine and the anticancer activities of the Ru^II, Rh^III, Mn^II and Zn^II complexes of lysicamine” (Oncotarget, 2017).
# Values joined by “and” are separate entries in the source; they are usually repeats but may differ in a detail not shown here. Equal values may be shown once.
# Tests used:
# BEL-7404 = assay: MTT assay, BEL-7404 cells; assay type: cell-based, human; conditions: 48 h
# NCI-H460 = assay: MTT assay, NCI-H460 cells; assay type: cell-based, human; conditions: 48 h
# T-24 = assay: MTT assay, T-24 cells; assay type: cell-based, human; conditions: 48 h
# [1] = system: HL-7702 normal liver cell; assay: MTT assay, HL-7702 normal liver cell; assay type: cell-based; conditions: 48 h, normal liver cell; for inhibitive ratio HL-7702: 20 μmol/L
# HepG2 cells [2] = assay: Uptake of metal complexes in HepG2 cells (ICP-MS); assay type: cell-based, human; conditions: HepG2, 2 at 7.0 μM, 3 at […], 8 h
# HepG2 cells [3] = assay: Cell cycle analysis by flow cytometry; assay type: cell-based, human
# HepG2 cells [4] = assay: Apoptosis assay, Annexin V-FITC/PI flow cytometry; assay type: cell-based, human; conditions: HepG2, 28.0 μM, 24 h; control […]
# pBR322 plasmid DNA = assay: Agarose gel electrophoresis assay with pBR322 plasmid DNA; assay type: biochemical; conditions: pBR322 0.5 μg/μL, TBE buffer pH=8.5, 10 to 100 μM
# Procedure: The DNA cleavage activity of 2, 3 and LY were tested by agarose gel electrophoresis assay using pBR322 plasmid DNA (0.5 μg/μL) in TBE buffer (pH=8.5). […] In contrast, under the same experimental conditions, when the concentration of 2 increased from 10 μM to 50 μM, the mobility of supercoiled DNA (form I) was reduced, but the relaxed form (form II) was not observed. When the concentration of 2 increased further to 70 μM, the form II DNA appeared. Almost all supercoiled DNA (form I) changed to relaxed DNA (form II) when the concentration of 2 reached 90 and 100 μM.
# RT-qPCR was performed. The threshold cycle (Ct) values approval no. SCXK 2014-0002 and SYXK 2014-0003), […]
# were housed at a sterile environment with conditions of […]
# than 3 days before used. Complexes and LYwere all […]
# is limited in 1% in final working solutions. KM mice. The large concentration of 2 in 10% (v/v) […]
# ct-DNA CD spectrum as control.
# The HepG2 xenograft mice were induced by
# 37 °C in the dark for 4 h.
# The percent weight loss or gain was calculated […]
# imaging system under a UV-Vis transilluminator.. Percent tumour growth inhibition after initiation of treatment with 2 and cisplatin were calculated by TGI= […]
# initial for control group).
# Animals were supplied by Guangxi Medical
# University Laboratory Animal Centre (Guangxi, China, […]
# HepG2 cells [5] = assay: Hoechst33258 assay; conditions: HepG2, 24 h; 2 at 3.5, 7.0, […]; 3 at 7.0, 14.0, 28.0 μM
# Procedure: The Hoechst33258 assay is commonly used to measure the changes in cell morphology caused by apoptosis [55]. The HepG2 cells were incubated with 2 (3.5, 7.0, and 14.0 μM) and 3 (7.0, 14.0, and 28.0 μM) for 24 h, respectively, then stained with Hoechst33258 and examined under a fluorescence microscope (Figure 4A).
# Hoechst33258 assay Cell cycle-, apoptotic-associated proteins used
# The morphology characters of apoptosis of HepG2 western blotting analysis
# cells treated with 2 and 3 were carried out by Hoechst Extraction of total protein
# 33258 staining. About 1×10^6 cells were seeded in six-well
# plates, and treated with 2 (3.5, 7.0 and 14.0 μM) and 3 After HepG2 cells incubated with 2 (3.5, 7.0, 14.0
# (7.0, 14.0 and 28.0 μM) for 24 h. The cells were fixed with μM) and 3 (7.0, 14.0, 28.0 μM) for 24 h, cells were
# then stained with Hoechst 33258 for another 10 min in on ice.
# caspase-3 in HepG2 cells = assay: Activated caspase-3 by flow cytometry; conditions: HepG2, at IC50, 24 h; control 0.0 %
# Procedure: (§1) After treated, the cells were collected, and suspended in h at 37 °C in 5% CO2 incubator. The cells were harvested
# (§2) with annexin V-FITC and PI for 1 h at room temperature cytometer equipped. The results were represented as the
# (§3) in the dark and immediately analyzed by flow cytometry. percent change on the activity comparing with the control.
# (§4) Caspase- 3, -8 and -9 activity determinations by our previously report [3].
# caspase-8 in HepG2 cells = assay: Activated caspase-8 by flow cytometry; conditions: HepG2, at IC50, 24 h; control 2.1 %
# Procedure: as §1, §2, §3, §4
# [6] = system: apoptosis associated proteins in HepG2 cells; assay: Western blot of apoptosis-related proteins; conditions: HepG2, 24 h, various concentrations
# [7] = system: cell cycle regulatory proteins in HepG2 cells; assay: Western blot of cell cycle regulatory proteins; conditions: HepG2, 24 h
# Procedure: HepG2 cells were incubated with 2 and 3 at increasing concentrations for 24 h, and the expression of cell cycle regulatory proteins in the S phase was examined through Western blot analysis.
# HepG2 cells [8] = assay: ROS, intracellular Ca2+ and mitochondrial membrane potential (DCFH-DA, Fluo-3 AM, JC-1); conditions: HepG2, 24 h; 2 at 3.5, 7.0, […]; 3 at 7.0, 14.0, 28.0 μM
# Procedure: The changes in the ROS level, intracellular Ca^2+ and loss of ΔΨm in the HepG2 cells were detected by the DCFH-DA, Fluo-3 AM, and JC-1 fluorescent probes, respectively (see in Figure 5A). Green fluorescence represented higher ROS levels, more intracellular Ca^2+, and reduced ΔΨm.
# Measurement of oxygen species (ROS), Determination of cell cycle and apoptotic related
# intracellular Ca2+ and mitochondrial membrane proteins
# and then resuspended in 1mL of DCFH-DA (100 μM) onto a PVDF membrane.
# cytometry or fluorescence microscope.
# [9] = MTT, mean ± SD from five independent experiments
smiles,measurement,setting,value
"COc1cc2ccnc3c2c(c1OC)-c1ccccc1C3=O.COc1cc2ccnc3c2c(c1OC)-c1ccccc1C3=O.COc1cc2ccnc3c2c(c1OC)-c1ccccc1C3=O.ClC(Cl)Cl.ClC(Cl)Cl.ClC(Cl)Cl.[Mn+2].[O-][Cl+3]([O-])([O-])[O-].[O-][Cl+3]([O-])([O-])[O-] [Complex 3, [Mn(LY)3](ClO4)2·3CHCl3]",inhibitive ratio BEL-7404,BEL-7404; 20 μmol/L,35.27±1.15%
same,IC50,BEL-7404; [9],36.2 ± 1.03 µM
same,inhibitive ratio NCI-H460,NCI-H460; 20 μmol/L,54.93±0.86% and 54.93%
same,IC50,NCI-H460; [9],12.9 ± 3.62 µM
same,inhibitive ratio T-24,T-24; 20 μmol/L,45.42±1.66%
same,IC50,T-24; [9],15.4 ± 1.81 µM
same,inhibitive ratio HL-7702,[1],32.9%
same,inhibitive ratio HL-7702,[1]; listed as 3,32.97±1.14%
same,IC50,[1]; [9],55.4 ± 3.65 µM
same,distribution of the metal (Rh or Mn) in mitochondrial vs nuclear fraction,HepG2 cells [2],higher in the mitochondrial fraction than in the nuclear fraction
same,cell population in S phase,"HepG2 cells [3]; HepG2, 28.0 μM, 24 h, control 31.23%",48.70%
same,effect on cell cycle progression,"HepG2 cells [3]; HepG2, 24 h",significant cell cycle arrest at the S phase
same,percentages of cells undergoing apoptosis and necrosis,HepG2 cells [4],35.8%
same,DNA cleavage activity on supercoiled pBR322 DNA,pBR322 plasmid DNA,cleavage of supercoiled DNA was still little
same,Hoechst33258 fluorescence / apoptotic cell morphology,HepG2 cells [5],stronger fluorescence in a dose-dependent manner
same,proportion of activated caspase-3 cells,caspase-3 in HepG2 cells,18.8%
same,proportion of activated caspase-8 cells,caspase-8 in HepG2 cells,12.3%
same,"expression of Bax, Apaf-1 and cytochrome c",[6],increased
same,"expression of C-myc, Bcl-xl and Bcl-2",[6],decreased
same,proliferating cell nuclear antigen (PCNA) level,[7],decreased
same,"expression of Cdk2, p-Cdc25A, p53, p21 and p27",[7]; increasing concentrations,increased
same,"ROS, intracellular Ca2+ and ΔΨm",HepG2 cells [8],"caused overproduction of ROS, rising intracellular Ca^2+, and loss of Δψm"
